Data: the supplement of paper PMC10307832

Assays:
Assay in all cases: relative viability (nuclei count vs DMSO), 5 days (fraction); higher = more cells survive
Sorafenib + Lapatinib = compound: CNC(=O)c1cc(Oc2ccc(NC(=O)Nc3ccc(Cl)c(C(F)(F)F)c3)cc2)ccn1 [Sorafenib] + CS(=O)(=O)CCNCc1ccc(-c2ccc3ncnc(Nc4ccc(OCc5cccc(F)c5)c(Cl)c4)c3c2)o1 [Lapatinib] (partner 2 µM)
In short: (§1)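 Each reported value is a median over duplicate plates. It expresses relative viability: treated-well nuclei count divided by vehicle-well nuclei count. Lung cancer cell lines in 1536-well plates were dosed by pin tool a day after seeding, alone with one drug or with a fixed anchor-drug dose plus five library-drug doses (not always all listed) in √10 steps, and nuclei were counted after 5 days.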

Sorafenib + Dasatinib = compound: CNC(=O)c1cc(Oc2ccc(NC(=O)Nc3ccc(Cl)c(C(F)(F)F)c3)cc2)ccn1 [Sorafenib] + Cc1nc(Nc2ncc(C(=O)Nc3c(C)cccc3Cl)s2)cc(N2CCN(CCO)CC2)n1 [Dasatinib] (partner 0.075 µM)
In short: as §1

Sorafenib + Decitabine = compound: CNC(=O)c1cc(Oc2ccc(NC(=O)Nc3ccc(Cl)c(C(F)(F)F)c3)cc2)ccn1 [Sorafenib] + Nc1ncn([C@H]2C[C@H](O)[C@@H](CO)O2)c(=O)n1 [Decitabine] (partner 2 µM)
In short: as §1

Sorafenib + Vorinostat = compound: CNC(=O)c1cc(Oc2ccc(NC(=O)Nc3ccc(Cl)c(C(F)(F)F)c3)cc2)ccn1 [Sorafenib] + O=C(CCCCCCC(=O)Nc1ccccc1)NO [Vorinostat] (partner 1 µM)
In short: as §1

Sorafenib + Olaparib = compound: CNC(=O)c1cc(Oc2ccc(NC(=O)Nc3ccc(Cl)c(C(F)(F)F)c3)cc2)ccn1 [Sorafenib] + O=C(c1cc(Cc2n[nH]c(=O)c3ccccc23)ccc1F)N1CCN(C(=O)C2CC2)CC1 [Olaparib] (partner 8 µM)
In short: as §1

LXF-289
relative viability (Sorafenib + Lapatinib; first compound 0.08 µM): 0.91 | relative viability (Sorafenib + Lapatinib; first compound 0.253 µM): 0.831 | relative viability (Sorafenib + Lapatinib; first compound 2.53 µM): 0.938 | relative viability (Sorafenib + Dasatinib; first compound 0.08 µM): 0.292 | relative viability (Sorafenib + Dasatinib; first compound 0.253 µM): 0.205 | relative viability (Sorafenib + Dasatinib; first compound 2.53 µM): 0.187 | relative viability (Sorafenib + Dasatinib; first compound 8 µM): 0.196 | relative viability (Sorafenib + Decitabine; first compound 0.08 µM): 0.379 | relative viability (Sorafenib + Decitabine; first compound 0.253 µM): 0.38 | relative viability (Sorafenib + Decitabine; first compound 8 µM): 0.329 | relative viability (Sorafenib + Vorinostat; first compound 0.08 µM): 0.758 | relative viability (Sorafenib + Vorinostat; first compound 0.253 µM): 0.757 | relative viability (Sorafenib + Vorinostat; first compound 2.53 µM): 0.848 | relative viability (Sorafenib + Vorinostat; first compound 8 µM): 0.681 | relative viability (Sorafenib + Olaparib; first compound 0.08 µM): 1.03 | relative viability (Sorafenib + Olaparib; first compound 0.253 µM): 1.04 | relative viability (Sorafenib + Olaparib; first compound 2.53 µM): 1.01 | relative viability (Sorafenib + Olaparib; first compound 8 µM): 0.96

NCI-H23
relative viability (Sorafenib + Lapatinib; first compound 0.08 µM): 1.23 | relative viability (Sorafenib + Lapatinib; first compound 0.253 µM): 1.07 | relative viability (Sorafenib + Lapatinib; first compound 2.53 µM): 1.02 | relative viability (Sorafenib + Lapatinib; first compound 8 µM): 0.908 | relative viability (Sorafenib + Dasatinib; first compound 0.08 µM): 0.804 | relative viability (Sorafenib + Dasatinib; first compound 0.253 µM): 0.691 | relative viability (Sorafenib + Dasatinib; first compound 2.53 µM): 0.646 | relative viability (Sorafenib + Dasatinib; first compound 8 µM): 0.709 | relative viability (Sorafenib + Decitabine; first compound 0.08 µM): 0.269 | relative viability (Sorafenib + Decitabine; first compound 0.253 µM): 0.292 | relative viability (Sorafenib + Decitabine; first compound 2.53 µM): 0.302 | relative viability (Sorafenib + Decitabine; first compound 8 µM): 0.26 | relative viability (Sorafenib + Vorinostat; first compound 0.08 µM): 0.635 | relative viability (Sorafenib + Vorinostat; first compound 0.253 µM): 0.384 | relative viability (Sorafenib + Vorinostat; first compound 2.53 µM): 0.678 | relative viability (Sorafenib + Vorinostat; first compound 8 µM): 0.547 | relative viability (Sorafenib + Olaparib; first compound 0.08 µM): 0.31 | relative viability (Sorafenib + Olaparib; first compound 0.253 µM): 0.249 | relative viability (Sorafenib + Olaparib; first compound 2.53 µM): 0.343 | relative viability (Sorafenib + Olaparib; first compound 8 µM): 0.266

NCI-H322M
relative viability (Sorafenib + Lapatinib; first compound 0.08 µM): 0.597 | relative viability (Sorafenib + Lapatinib; first compound 0.253 µM): 0.639 | relative viability (Sorafenib + Lapatinib; first compound 2.53 µM): 0.727 | relative viability (Sorafenib + Lapatinib; first compound 8 µM): 0.665 | relative viability (Sorafenib + Dasatinib; first compound 0.08 µM): 0.261 | relative viability (Sorafenib + Dasatinib; first compound 0.253 µM): 0.259 | relative viability (Sorafenib + Dasatinib; first compound 2.53 µM): 0.319 | relative viability (Sorafenib + Dasatinib; first compound 8 µM): 0.302 | relative viability (Sorafenib + Decitabine; first compound 0.08 µM): 0.69 | relative viability (Sorafenib + Decitabine; first compound 0.253 µM): 0.788 | relative viability (Sorafenib + Decitabine; first compound 2.53 µM): 0.823 | relative viability (Sorafenib + Decitabine; first compound 8 µM): 0.739 | relative viability (Sorafenib + Vorinostat; first compound 0.08 µM): 1.02 | relative viability (Sorafenib + Vorinostat; first compound 0.253 µM): 0.886 | relative viability (Sorafenib + Vorinostat; first compound 2.53 µM): 1.02 | relative viability (Sorafenib + Vorinostat; first compound 8 µM): 1.17 | relative viability (Sorafenib + Olaparib; first compound 0.08 µM): 0.903 | relative viability (Sorafenib + Olaparib; first compound 0.253 µM): 0.66 | relative viability (Sorafenib + Olaparib; first compound 2.53 µM): 0.678 | relative viability (Sorafenib + Olaparib; first compound 8 µM): 0.918

NCI-H358
relative viability (Sorafenib + Lapatinib; first compound 0.08 µM): 0.453 | relative viability (Sorafenib + Lapatinib; first compound 0.253 µM): 0.45 | relative viability (Sorafenib + Lapatinib; first compound 2.53 µM): 0.558 | relative viability (Sorafenib + Lapatinib; first compound 8 µM): 0.519 | relative viability (Sorafenib + Dasatinib; first compound 0.08 µM): 0.202 | relative viability (Sorafenib + Dasatinib; first compound 0.253 µM): 0.186 | relative viability (Sorafenib + Dasatinib; first compound 2.53 µM): 0.379 | relative viability (Sorafenib + Dasatinib; first compound 8 µM): 0.151 | relative viability (Sorafenib + Decitabine; first compound 0.08 µM): 0.224 | relative viability (Sorafenib + Decitabine; first compound 0.253 µM): 0.222 | relative viability (Sorafenib + Decitabine; first compound 2.53 µM): 0.217 | relative viability (Sorafenib + Decitabine; first compound 8 µM): 0.121 | relative viability (Sorafenib + Vorinostat; first compound 0.08 µM): 0.666 | relative viability (Sorafenib + Vorinostat; first compound 0.253 µM): 0.712 | relative viability (Sorafenib + Vorinostat; first compound 2.53 µM): 0.594 | relative viability (Sorafenib + Vorinostat; first compound 8 µM): 0.208 | relative viability (Sorafenib + Olaparib; first compound 0.08 µM): 0.551 | relative viability (Sorafenib + Olaparib; first compound 0.253 µM): 0.491 | relative viability (Sorafenib + Olaparib; first compound 2.53 µM): 0.368 | relative viability (Sorafenib + Olaparib; first compound 8 µM): 0.375

NCI-H441
relative viability (Sorafenib + Dasatinib; first compound 2.53 µM): 0.503 | relative viability (Sorafenib + Dasatinib; first compound 8 µM): 0.308 | relative viability (Sorafenib + Decitabine; first compound 0.08 µM): 0.23 | relative viability (Sorafenib + Decitabine; first compound 0.253 µM): 0.146 | relative viability (Sorafenib + Decitabine; first compound 2.53 µM): 0.207 | relative viability (Sorafenib + Decitabine; first compound 8 µM): 0.277 | relative viability (Sorafenib + Vorinostat; first compound 0.08 µM): 0.638 | relative viability (Sorafenib + Vorinostat; first compound 0.253 µM): 0.756 | relative viability (Sorafenib + Vorinostat; first compound 2.53 µM): 0.547 | relative viability (Sorafenib + Vorinostat; first compound 8 µM): 0.47 | relative viability (Sorafenib + Olaparib; first compound 0.08 µM): 0.593 | relative viability (Sorafenib + Olaparib; first compound 0.253 µM): 0.5 | relative viability (Sorafenib + Olaparib; first compound 2.53 µM): 0.455 | relative viability (Sorafenib + Olaparib; first compound 8 µM): 0.308

NCI-H1563
relative viability (Sorafenib + Lapatinib; first compound 0.08 µM): 1.01 | relative viability (Sorafenib + Lapatinib; first compound 0.253 µM): 0.92 | relative viability (Sorafenib + Lapatinib; first compound 2.53 µM): 0.884 | relative viability (Sorafenib + Lapatinib; first compound 8 µM): 0.671 | relative viability (Sorafenib + Dasatinib; first compound 0.08 µM): 0.496 | relative viability (Sorafenib + Dasatinib; first compound 0.253 µM): 0.469 | relative viability (Sorafenib + Dasatinib; first compound 2.53 µM): 0.478 | relative viability (Sorafenib + Dasatinib; first compound 8 µM): 0.454

NCI-H1703
relative viability (Sorafenib + Lapatinib; first compound 0.08 µM): 0.716 | relative viability (Sorafenib + Lapatinib; first compound 0.253 µM): 0.435 | relative viability (Sorafenib + Lapatinib; first compound 2.53 µM): 0.28 | relative viability (Sorafenib + Lapatinib; first compound 8 µM): 0.221 | relative viability (Sorafenib + Olaparib; first compound 0.08 µM): 0.317 | relative viability (Sorafenib + Olaparib; first compound 0.253 µM): 0.27 | relative viability (Sorafenib + Olaparib; first compound 2.53 µM): 0.194 | relative viability (Sorafenib + Olaparib; first compound 8 µM): 0.192

NCI-H1792
relative viability (Sorafenib + Lapatinib; first compound 0.08 µM): 0.948 | relative viability (Sorafenib + Lapatinib; first compound 0.253 µM): 0.811 | relative viability (Sorafenib + Lapatinib; first compound 2.53 µM): 0.936 | relative viability (Sorafenib + Lapatinib; first compound 8 µM): 0.879 | relative viability (Sorafenib + Dasatinib; first compound 0.08 µM): 0.825 | relative viability (Sorafenib + Dasatinib; first compound 0.253 µM): 0.742 | relative viability (Sorafenib + Dasatinib; first compound 2.53 µM): 0.863 | relative viability (Sorafenib + Dasatinib; first compound 8 µM): 0.554 | relative viability (Sorafenib + Decitabine; first compound 0.08 µM): 0.507 | relative viability (Sorafenib + Decitabine; first compound 0.253 µM): 0.492 | relative viability (Sorafenib + Decitabine; first compound 2.53 µM): 0.489 | relative viability (Sorafenib + Decitabine; first compound 8 µM): 0.456 | relative viability (Sorafenib + Olaparib; first compound 0.08 µM): 0.645 | relative viability (Sorafenib + Olaparib; first compound 0.253 µM): 0.416 | relative viability (Sorafenib + Olaparib; first compound 2.53 µM): 0.347 | relative viability (Sorafenib + Olaparib; first compound 8 µM): 0.179

NCI-H2228
relative viability (Sorafenib + Lapatinib; first compound 0.08 µM): 1.23 | relative viability (Sorafenib + Lapatinib; first compound 0.253 µM): 0.936 | relative viability (Sorafenib + Lapatinib; first compound 2.53 µM): 0.985 | relative viability (Sorafenib + Lapatinib; first compound 8 µM): 0.627 | relative viability (Sorafenib + Dasatinib; first compound 0.08 µM): 0.543 | relative viability (Sorafenib + Dasatinib; first compound 0.253 µM): 0.434 | relative viability (Sorafenib + Dasatinib; first compound 2.53 µM): 0.465 | relative viability (Sorafenib + Dasatinib; first compound 8 µM): 0.271 | relative viability (Sorafenib + Vorinostat; first compound 0.08 µM): 0.672 | relative viability (Sorafenib + Vorinostat; first compound 0.253 µM): 0.598 | relative viability (Sorafenib + Vorinostat; first compound 2.53 µM): 0.265 | relative viability (Sorafenib + Vorinostat; first compound 8 µM): 0.315 | relative viability (Sorafenib + Olaparib; first compound 0.08 µM): 0.868 | relative viability (Sorafenib + Olaparib; first compound 0.253 µM): 0.46 | relative viability (Sorafenib + Olaparib; first compound 2.53 µM): 0.532 | relative viability (Sorafenib + Olaparib; first compound 8 µM): 0.294

NCI-H2342
relative viability (Sorafenib + Dasatinib; first compound 0.08 µM): 0.32 | relative viability (Sorafenib + Dasatinib; first compound 0.253 µM): 0.27 | relative viability (Sorafenib + Dasatinib; first compound 2.53 µM): 0.29 | relative viability (Sorafenib + Dasatinib; first compound 8 µM): 0.28 | relative viability (Sorafenib + Decitabine; first compound 0.08 µM): 0.778 | relative viability (Sorafenib + Decitabine; first compound 0.253 µM): 0.676 | relative viability (Sorafenib + Decitabine; first compound 2.53 µM): 0.716 | relative viability (Sorafenib + Decitabine; first compound 8 µM): 0.712 | relative viability (Sorafenib + Vorinostat; first compound 0.08 µM): 0.806 | relative viability (Sorafenib + Vorinostat; first compound 0.253 µM): 0.628 | relative viability (Sorafenib + Vorinostat; first compound 2.53 µM): 0.689 | relative viability (Sorafenib + Vorinostat; first compound 8 µM): 0.645 | relative viability (Sorafenib + Olaparib; first compound 0.08 µM): 0.433 | relative viability (Sorafenib + Olaparib; first compound 0.253 µM): 0.487 | relative viability (Sorafenib + Olaparib; first compound 2.53 µM): 0.351 | relative viability (Sorafenib + Olaparib; first compound 8 µM): 0.388
